The test system of data set [1] is C. albicans ATCC 10231. It is filed as cell-based, Candida albicans. Here is the method:
Killing kinetics analysis was performed as described previously. […] After an appropriate time of incubation, 10 μL was withdrawn and spread on YPG agar plates. The number of colony-forming units (CFUs) was determined after overnight incubation of the plates at 37 °C. The killing kinetics analysis was performed with the GraphPad Prism 8 software (GraphPad Software Inc., San Diego, CA, USA).

Data set [2] concerns Saccharomyces cerevisiae ATCC 9763. Nature of the data set: microbe, parasite or virus in culture. The following applies: ATCC9763, 24 h, pH 7.
The test system of data set [3] is Candida glabrata ATCC 90030. Nature of the data set: microbe, parasite or virus in culture. The following applies: Nakaseomyces glabratus, ATCC90030, 24 h, pH 7.
The subject of data set [4] is Candida parapsilosis ATCC 22019. Nature of the data set: microbe, parasite or virus in culture. The following applies: Lodderomyces parapsilosis, ATCC22019, 24 h, pH 7.
For data set [5], the system named is human erythrocytes. It is filed as cell-based. The following applies: 30 min. Here is the method:
Red blood cell concentrates were kindly provided by the Regional Centre for Blood Donation and Blood Treatment in Gdansk. The haemolytic activity determination was carried out by the serial dilution method according to the procedure described earlier. Human erythrocytes were suspended in a solution of saline to obtain a cell density of suspension 2 × l0^7 per mL. Suitable amounts of solutions of compounds diluted in DMSO were added to the cell suspension in tubes, incubated at 37 °C for 30 min, and then centrifuged (1700× g, 5 min, 4 °C). The concentration of haemoglobin in the supernatant after centrifugation of the erythrocytes suspension was determined by measuring the absorbance at wavelength λ = 540 nm (A540 ^sample). Control experiments with the same amount of DMSO were also performed (A540 ^DMSO). The maximum level of haemolysis was obtained after incubation of the cell suspension in the presence of 0.1% Triton X-100 (positive control, A540 ^0.1%Triton X−100). […] The EH50 values for each compound were calculated with GraphPad Prism 8 software. The EH50 is the interpolated concentration of compound, for which the A540 value is exactly 50% of the A540 value measured for the positive control sample. EH (%) was calculated as follows:EH (%) = ((A540 ^sample − A540 ^DMSO)/(A540 ^0.1%Triton X−100 − A540 ^0.9%NaCl)) × 100

For data set [6], the system named is Candida krusei ATCC 6258. Nature of the data set: microbe, parasite or virus in culture. The settings on record: Pichia kudriavzevii, ATCC6258, 24 h, pH 7.
Data set [7] concerns C. albicans ATCC 10231. As to the kind of experiment: microbe, parasite or virus in culture. It is filed as cell-based. The following applies: Candida albicans, ATCC10231; minimal fungicidal concentration that kills 99% of cells; read-out: MFC. Here is the method:
(§1) To establish the possible mode of action for Compound 1-R8, we have analysed the killing activity and determined minimal fungicidal concentrations (MFCs) (Table 4). Additionally, killing kinetics analysis against pathogenic C. albicans ATCC 10231 was performed (Figure 2).
(§2) Minimum fungicidal concentrations (MFCs) were determined as described previously by spot assay. The MFC was determined as the lowest concentration of the test compound in which no recovery of microorganisms was observed.

In data set [8] the test system is C. krusei DSM 6128. As to the kind of experiment: microbe, parasite or virus in culture. It counts as cell-based. The following applies: Pichia kudriavzevii, DSM6128; minimal fungicidal concentration that kills 99% of cells; read-out: MFC. The protocol: as §1, §2
The test system of data set [9] is C. parapsilosis DSM 5784. Nature of the data set: microbe, parasite or virus in culture. It counts as cell-based. The following applies: Lodderomyces parapsilosis, DSM5784; minimal fungicidal concentration that kills 99% of cells; read-out: MFC. Here is the method: as §1, §2
The test system of data set [10] is C. glabrata DSM 11226. Nature of the data set: microbe, parasite or virus in culture. It is filed as cell-based. The settings on record: Nakaseomyces glabratus, DSM11226; minimal fungicidal concentration that kills 99% of cells; read-out: MFC. Here is the method: as §1, §2
For data set [11], the system named is Candida albicans ATCC 10231. Nature of the data set: microbe, parasite or virus in culture. The following applies: ATCC10231, 24 h, pH 7.
In data set [12] the test system is S. cerevisiae ATCC 9763. Nature of the data set: Minimal fungicidal concentration, spot assay. It counts as cell-based. The settings on record: Saccharomyces cerevisiae, ATCC9763; minimal fungicidal concentration that kills 99% of cells; read-out: MFC. The protocol:
as §1, §2

The values that follow come from article PMC8705783, “The Effect of Conjugation with Octaarginine, a Cell-Penetrating Peptide on Antifungal Activity of Imidazoacridinone Derivative” (International Journal of Molecular Sciences, 2021).

In brackets after ≈: the same amount, converted by molar mass.

As to `C[C@@H]1[C@H](O)[C@@H](C)/C=C/C=C/C=C/C=C/C=C/C=C/C=C/[C@H](O[C@@H]2O[C@H](C)[C@@H](O)[C@H](N)[C@@H]2O)C[C@@H]2O[C@](O)(C[C@@H](O)C[C@@H](O)[C@H](O)CC[C@@H](O)C[C@@H](O)CC(=O)O[C@H]1C)C[C@H](O)[C@H]2C(=O)O` [Amphotericin B], the “mortality of the microbial population” value in data set [1] is listed as “about 60%”. Also, the MIC90 in [2] amounted to 0.5 µg/mL (≈ 0.541 µM); in data set [3], 1 µg/mL (≈ 1.08 µM); in data set [4], 1 µg/mL (≈ 1.08 µM); in [6], 1 µg/mL (≈ 1.08 µM); in [11], 0.5 µg/mL (≈ 0.541 µM). For the same molecule, the EH50 in data set [5] is 3.46 ± 0.15 µg/mL. Moreover, the MFC in [7], in data set [8], in data set [9], in data set [10] and in data set [12] was 2 µg/mL (≈ 2.16 µM) in each case.
